Earlier results, collected in patent US20170239214A1, “COMPOSITION FOR PREVENTING OR TREATING OBESITY CONTAINING ALPHA-LIPOIC ACID AND N-ACETYLCYSTEINE AS ACTIVE INGREDIENTS” (The Asan Foundation, priority 2015, published 2017).

What was measured:
[1] = mice
[2] = rats

O=C(O)CCCCC1CCSS1 (stereo not drawn) [α-lipoic acid]
appetite suppressant effect [1]: pronounced appetite suppressant effect

CC(=O)N[C@@H](CS)C(=O)O [N-acetylcysteine]
improving insulin resistance [2]: improving insulin resistance
inhibiting a weight gain [2]: significant effects of inhibiting a weight gain
